Reference: patent US20220220106A1, “QUINOLINE COMPOUNDS AND PHARMACEUTICAL COMPOSITIONS AND USES THEREOF” (Academy of Military Medical Sciences, priority 2019, published 2022)
Read-outs that look alike come from different tables or passages of the source.

How the values were obtained:
[1] = In vivo drug metabolism (pharmacokinetics) in mice, iv and po; set-up: species or system C57 male mice; conditions: for apparent volume of distribution (Vss), in words / area under curve (AUC) through injection administration route, in words / clearance rate (CL), in words: iv; for Tmax / AUC / clearance / half-life / Vd / C0 / Cmax: male, plasma; for Tmax: C57, mouse, 10 mg/kg; for AUC / clearance / half-life / Vd / C0 / Cmax: mouse; for clearance: read-out: CL iv; for Vd: read-out: Vss iv; for F po: oral bioavailability, po 10 mg/kg vs iv 1 mg/kg
Method: Experimental animals: C57 male mice (purchased from Beijing Vital River Laboratory Animal Technology Co., Ltd.), bred for 6-8 weeks and weighing 20-30 g, 3 mice in each group of iv/po groups, a total of 6 groups.
Preparation of Sample Solutions:
(1) Preparation of sample solution (1 mg/kg, 5 mL/kg) for injection (iv): 1 mg of the sample to be tested was dissolved in 0.5 mL DMSO, mixed by a vortex mixer, and treated ultrasonically to obtain a stock solution (2 mg/mL); 0.10 mL of the stock solution (2 mg/mL) was added to a vial, then 0.4 mL of PEG400 and 0.5 mL of water were added, and mixed by a vortex shaker, treated ultrasonically to obtain a sample solution with a concentration of 0.2 mg/mL.
(2) Preparation of sample solution (10 mg/kg, 10 mL/kg) for oral administration (po): 1 mg of the sample to be tested was dissolved in 1 mL of “0.5% CMC/0.1% Tween-80 aqueous solution”, mixed by a vortex mixer, and treated ultrasonically to obtain a suspension of the sample to be tested with a concentration of 1 mg/mL.
(§1) Liquid Chromatography Method:
(1) Chromatographic column: Waters XSELECT CSH C18, 2.5 μm 2.1×50 mm chromatographic column.
(2) Mobile phase: Phase A: 5% acetonitrile in aqueous solution (0.1% formic acid); Phase B: 95% acetonitrile in aqueous solution (0.1% formic acid).
(3) Flow rate: 0.6 mL/min.
(4) Sampling volume: 20 μL.
For each compound, po group and iv group were set for administration. All experimental animals were fasted overnight before administration, and all administration was performed at room temperature.
Sampling time: for iv group, sampling was performed at 0.083, 0.25, 0.5, 1, 2, 4, 8 and 24 hours after injection administration (iv); for po group, sample was performed at 0.25, 0.5, 1, 2, 4, 8 and 24 hours after oral administration (po).
(1) At each time point, about 0.03 mL of blood was collected. The blood of each sample was transferred to a plastic microcentrifuge tube containing heparin sodium anticoagulant, mixed well with the anticoagulant, and then cooled on ice and centrifuged.
(2) The blood sample was centrifuged at 4000 rpm for 5 minutes at 4° C. to obtain plasma.
(3) The samples was stored in a refrigerator at −75±15° C. for later test.
Analysis and Identification:
The mixed solution of acetonitrile and water (1:1) was used to dilute the stock solution to prepare a series of working solutions.
3 μL of working solution (5, 10, 20, 50, 100, 500, 1000, 5000, 10000 ng/mL) was added to 30 μL of C57 mouse blank plasma to obtain a standard solution with a concentration of 0.5-1000 ng/mL (0.5, 1, 2, 5, 10, 50, 100, 500, 1000 ng/mL), in total of 33 μL. Four quality control samples of 1 ng/mL, 2 ng/mL, 50 ng/mL and 800 ng/mL were used to calibrate the standard curve.
(2) The quality control samples were prepared on the day of analysis, and the method was the same as the standard solution.
(3) 200 μL of acetonitrile containing internal standard solution was added to 33 μL of standard samples, 33 μL of quality control samples and 33 μL of unknown sample (30 μL of plasma and 3 μL of blank solution) to precipitate protein, respectively. The samples were mixed by a vortex mixer for 30 seconds and mixed well. The precipitated samples were centrifuged for 15 minutes at 4° C. and 4000 rpm.
(4) The supernatant was pipetted quantitatively and diluted by 3 times with water, then the diluted supernatant was loaded and quantitatively analyzed by liquid chromatography-mass spectrometry technology.
(5) Detection data were obtained, and pharmacokinetic parameters such as T1/2, Cmax, AUC, AUC, CL, Vss, F were calculated.

[2] = Water solubility in saturated aqueous solution (HPLC, one-point method); type: physicochemical; conditions: for Water solubility: deionized water, 25° C.
Method: By measuring the solubility of compound in a saturated aqueous solution, the water solubility of the compound was further investigated.
Preparation of Supersaturated Solution:
(1) About 1 mg of the compound to be tested was weighed and added to a 25 mL tube;
(2) 5 mL of deionized water was added, shaken well, placed in a vortex shaker and mixed for 30 seconds, then treated ultrasonically for 30 seconds;
(3) The tube was placed in a constant temperature water bath, and allowed to stand in a constant temperature water bath at 25° C. for 1 hour;
(4) The operation of (2) was repeated, and the standing at constant temperature of 25° C. was continued for 1 hour;
(5) The prepared supersaturated solution supernatant was taken out and placed in a centrifuge tube, centrifuged at 15000 rpm for 5 minutes, and the upper centrifugate was taken out for later use.
as §1
(1) Chromatographic column: Agilent XDB Eclipse C18, 25 cm×4.6 mm×5 μm liquid chromatography column.
(2) Mobile phase: Phase A: water (0.1% trifluoroacetic acid); Phase B: acetonitrile.
(3) Flow rate: 1.0 mL/min.
(4) Sampling volume: 10 μl.
Preparation of standard solution: 1.0 mg of the sample to be tested was accurately weighed, added to a 10 mL volumetric flask, dissolved in methanol as solvent, metered to a constant volume of 10 mL, the concentration of solution was calculated, and it was used as a standard solution for later use.
By using the one-point method, the chromatographic peak area of the standard solution of the sample to be tested was determined, and then the peak area of the supersaturated compound was determined, and the solubility of the compound to be tested in water was calculated accordingly.

[3] = po, po 10 mg/kg, read-out: Tmax po
[4] = po, po, read-out: peak time Tmax
[5] = iv 1 mg/kg, C57 mice, read-out: AUC iv
[6] = iv 1 mg/kg, C57 mice, read-out: T1/2 iv (converted)
[7] = po 10 mg/kg, C57 mice, read-out: AUC po
[8] = po 10 mg/kg, C57 mice, read-out: T1/2 po (converted)

| SMILES | half-life T1/2, in words ([1]; C57 mice) | apparent volume of distribution (Vss), in words ([1]; C57 mice) | area under curve (AUC) through injection administration route, in words ([1]; C57 mice) | Tmax [1, 3] | Tmax [1, 4] | AUC [1, 5] | clearance ([1]; iv 1 mg/kg, C57 mice) | half-life [1, 6] | Vd ([1]; iv 1 mg/kg, C57 mice) | AUC [1, 7] | half-life [1, 8] | C0 ([1]; iv 1 mg/kg, C57 mice) | Cmax ([1]; po 10 mg/kg, C57 mice) | Water solubility [2] | clearance rate (CL), in words ([1]; C57 mice) | F po ([1]; C57 mice) | highest blood concentration C0/Cmax, in words ([1]; C57 mice) | water solubility, in words [2] | AUC through oral administration, in words ([1]; po, C57 mice) |
| --- | --- | --- | --- | --- | --- | --- | --- | --- | --- | --- | --- | --- | --- | --- | --- | --- | --- | --- | --- |
| COc1ccc(-c2ccc3ncc4ccc(=O)n(-c5cccc(C(F)(F)F)c5)c4c3c2)cn1 [HTL-7-03, 9-[3-(6-methoxy)pyridyl]-2-oxo-1-[3-(trifluoromethyl)phenyl]-1,2-dihydrobenzo[h][1,6]naphthyridine] | relatively longer half-life | slightly higher | relatively high | 40 min | > 30 min | 668 ng·h/mL | 24.1 mL/min/kg | 110 min | 3.24 L/kg | 1640 ng·h/mL | 74.4 min | 596 ng/mL | 565 ng/mL | 0.61 µg/mL | – | – | – | – | – |
| CCC(=O)Nc1ccc(-c2ccc3ncc4ccc(=O)n(-c5cccc(C(F)(F)F)c5)c4c3c2)cn1 [HTL-6-45, 9-[3-(6-propionylamino)pyridyl]-2-oxo-1-[3-(trifluoromethyl)phenyl]-1,2-dihydrobenzo[h][1,6]naphthyridine] | – | slightly higher | – | 15 min | 15 min | 95 ng·h/mL | 176 mL/min/kg | 19.4 min | 3.25 L/kg | 35.4 ng·h/mL | 50.4 min | 398 ng/mL | 42.9 ng/mL | 0.39 µg/mL | relatively higher clearance rate | 3.89% | – | – | – |
| O=c1ccc2cnc3ccc(-c4cccnc4F)cc3c2n1-c1cccc(C(F)(F)F)c1 [HTL-6-48, 9-[3-(2-fluoro)pyridyl]-2-oxo-1-[3-(trifluoromethyl)phenyl]-1,2-dihydrobenzo [h][1,6]naphthyridine] | – | lower | relatively high | 15 min | 15 min | 651 ng·h/mL | 25.6 mL/min/kg | 50.4 min | 1.59 L/kg | 1330 ng·h/mL | 59.4 min | 651 ng/mL | 1290 ng/mL | 5.88 µg/mL | – | – | relatively high | relatively high water solubility | – |
| O=c1ccc2cnc3ccc(-c4ccc(F)nc4)cc3c2n1-c1cccc(C(F)(F)F)c1 [HTL-7-01, 9-[3-(6-fluoro)pyridyl]-2-oxo-1-[3-(trifluoromethyl)phenyl]-1,2-dihydrobenzo[h][1,6]naphthyridine] | – | lower | relatively high | 30 min | > 30 min | 592 ng·h/mL | 27.8 mL/min/kg | 63 min | 2.29 L/kg | 699 ng·h/mL | 121 min | 574 ng/mL | 298 ng/mL | 0.42 µg/mL | – | 12.2% | – | – | lower |
| CN1CCN(c2ccc(-c3ccc4ncc5ccc(=O)n(-c6cccc(C(F)(F)F)c6)c5c4c3)cn2)CC1 [HTL-7-17, 9-{3-[6-(4-methylpiperazin-1-yl)pyridyl]}-2-oxo-1-[3-(trifluoromethyl)phenyl]-1,2-dihydrobenzo[h][1,6]naphthyridine] | – | slightly higher | – | 20 min | 19.8 min | 168 ng·h/mL | 99 mL/min/kg | 43.1 min | 3.59 L/kg | 357 ng·h/mL | 94.8 min | 364 ng/mL | 144 ng/mL | 18.64 µg/mL | relatively higher clearance rate | – | – | relatively high water solubility | – |
